Measurements: PubChem BioAssay AID248 (DTP/NCI, 2004)
Values joined by “and” are separate entries in the source; they are usually repeats but may differ in a detail not shown here. Equal values may be shown once. Inconclusive results and toxic doses are left out. Rule as the data show it: active = T/C of 150% or more; inactive = T/C below 125%.

System: L1210 leukemia ip in BDF1 mice, survival T/C
Test: NCI In Vivo Anticancer Drug Screen. Data for tumor model L1210 Leukemia (intraperitoneal) in B6D2F1 (BDF1) mice
Details: endpoint: mean survival time, higher = longer survival
Procedure, shortened: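 Mice bearing the transplanted tumor received compound or vehicle. Survival of the treated group was divided by that of the vehicle-treated control group to give the ratio.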

[1] = dose: 100.0 mg/kg/injection, schedule: Q01DX001 (ip), vehicle: carboxymethylcellulose (CMC)
[2] = dose: 200.0 mg/kg/injection, schedule: Q01DX001 (ip), vehicle: carboxymethylcellulose (CMC)
[3] = dose: 400.0 mg/kg/injection, schedule: Q01DX001 (ip), vehicle: carboxymethylcellulose (CMC)
[4] = dose: 100.0 mg/kg/injection, schedule: Q04DX002 (ip), vehicle: saline with Tween-80
[5] = dose: 200.0 mg/kg/injection, schedule: Q04DX002 (ip), vehicle: saline with Tween-80
[6] = dose: 400.0 mg/kg/injection, schedule: Q04DX002 (ip), vehicle: saline with Tween-80
[7] = dose: 100.0 mg/kg/injection, schedule: Q04DX003 (ip), vehicle: saline
[8] = dose: 200.0 mg/kg/injection, schedule: Q04DX003 (ip), vehicle: saline
[9] = dose: 400.0 mg/kg/injection, schedule: Q04DX003 (ip), vehicle: saline
[10] = dose: 100.0 mg/kg/injection, schedule: Q01DX001 (ip), vehicle: Klucel (hydroxypropylcellulose) (HPC)
[11] = dose: 200.0 mg/kg/injection, schedule: Q01DX001 (ip), vehicle: Klucel (hydroxypropylcellulose) (HPC)
[12] = dose: 200.0 mg/kg/injection, schedule: Q04DX002 (ip), vehicle: Klucel (hydroxypropylcellulose) (HPC)
[13] = dose: 400.0 mg/kg/injection, schedule: Q04DX002 (ip), vehicle: Klucel (hydroxypropylcellulose) (HPC)
[14] = dose: 100.0 mg/kg/injection, schedule: Q04DX002 (ip), vehicle: Klucel (hydroxypropylcellulose) (HPC)
[15] = dose: 100.0 mg/kg/injection, schedule: Q04DX003 (ip), vehicle: Klucel (hydroxypropylcellulose) (HPC)
[16] = dose: 200.0 mg/kg/injection, schedule: Q04DX003 (ip), vehicle: Klucel (hydroxypropylcellulose) (HPC)
[17] = dose: 400.0 mg/kg/injection, schedule: Q04DX003 (ip), vehicle: Klucel (hydroxypropylcellulose) (HPC)

Measured: T/C

CC(C)Cn1cnc2c(=S)nc(N)[nH]c21
inactive: dose: 6.0 mg/kg/injection, schedule: Q01DX015 (ip), vehicle: other 107 % of control | dose: 9.0 mg/kg/injection, schedule: Q01DX015 (ip), vehicle: carboxymethylcellulose (CMC) 103 % of control | dose: 9.0 mg/kg/injection, schedule: Q01DX015 (ip), vehicle: other 111 % of control | dose: 13.0 mg/kg/injection, schedule: Q01DX015 (ip), vehicle: carboxymethylcellulose (CMC) 104 % of control | dose: 20.0 mg/kg/injection, schedule: Q01DX015 (ip), vehicle: carboxymethylcellulose (CMC) 109 % of control | dose: 22.0 mg/kg/injection, schedule: Q01DX001 (ip), vehicle: carboxymethylcellulose (CMC) 114 % of control | dose: 44.0 mg/kg/injection, schedule: Q01DX015 (ip), vehicle: carboxymethylcellulose (CMC) 109 % of control | dose: 60.0 mg/kg/injection, schedule: Q01DX015 (ip), vehicle: other 124 % of control | dose: 66.0 mg/kg/injection, schedule: Q01DX015 (ip), vehicle: carboxymethylcellulose (CMC) 98 % of control | dose: 100.0 mg/kg/injection, schedule: Q01DX015 (ip), vehicle: carboxymethylcellulose (CMC) 98 % of control | dose: 100.0 mg/kg/injection, schedule: Q01DX015 (ip), vehicle: other 121 % of control | [3] 112 % of control
active: dose: 21.0 mg/kg/injection, schedule: Q01DX015 (ip), vehicle: other 150 % of control | [1] 155 % of control | [2] 153 % of control and 161 % of control

C=C(C)C1(O)C=CC(=O)O1 (centres undefined)
inactive: dose: 12.5 mg/kg/injection, schedule: Q01DX009 (ip), vehicle: saline 102 % of control | dose: 25.0 mg/kg/injection, schedule: Q01DX009 (ip), vehicle: saline 100 % of control | dose: 50.0 mg/kg/injection, schedule: Q01DX009 (ip), vehicle: saline 107 % of control

CCC(Cl)(Cl)[N+](=O)[O-]
inactive: [4] 98 % of control | [5] 98 % of control | [6] 102 % of control

C[n+]1c(/C=C/c2c[nH]c3ccccc23)ccc2ccccc21
inactive: dose: 5.0 mg/kg/injection, schedule: Q01DX001 (ip), vehicle: acetone 101 % of control | dose: 10.0 mg/kg/injection, schedule: Q01DX001 (ip), vehicle: acetone 102 % of control | dose: 20.0 mg/kg/injection, schedule: Q01DX001 (ip), vehicle: acetone 96 % of control | dose: 40.0 mg/kg/injection, schedule: Q01DX001 (ip), vehicle: acetone 107 % of control | dose: 80.0 mg/kg/injection, schedule: Q01DX001 (ip), vehicle: acetone 100 % of control

O=C1CCC(=O)N1C1c2ccccc2Oc2ccccc21
inactive: [7] 95 % of control | [8] 95 % of control | [9] 90 % of control

CC1(CCCc2ccc(N)cc2)N=C(N)N=C(N)N1c1ccccc1 (centres undefined)
inactive: dose: 50.0 mg/kg/injection, schedule: Q01DX001 (ip), vehicle: Klucel (hydroxypropylcellulose) (HPC) 106 % of control | [10] 112 % of control | [11] 110 % of control

O=C1CCCCC1CC1(O)C(=O)NC2CCC(Br)CC21 (centres undefined)
inactive: [12] 100 % of control | [13] 92 % of control

COC(=O)c1c(OC)cc(OC)cc1OC
inactive: dose: 100.0 mg/kg/injection, schedule: Q01DX009 (ip), vehicle: other 96 % of control | [7] 100 % of control | dose: 200.0 mg/kg/injection, schedule: Q01DX009 (ip), vehicle: other 96 % of control | [8] 97 % of control | dose: 400.0 mg/kg/injection, schedule: Q01DX009 (ip), vehicle: other 94 % of control | [9] 95 % of control

CCOC(=O)CCC(=O)OCC
inactive: dose: 100.0 mg/kg/injection, schedule: Q01DX001 (ip), vehicle: saline 95 % of control | dose: 200.0 mg/kg/injection, schedule: Q01DX001 (ip), vehicle: saline 95 % of control | dose: 400.0 mg/kg/injection, schedule: Q01DX001 (ip), vehicle: saline 93 % of control

CC(C)Oc1ccc2c(c1)Sc1ccc(Cl)cc1N2
inactive: dose: 100.0 mg/kg/injection, schedule: Q01DX009 (ip), vehicle: saline with Tween-80 102 % of control | dose: 200.0 mg/kg/injection, schedule: Q01DX009 (ip), vehicle: saline with Tween-80 94 % of control | dose: 400.0 mg/kg/injection, schedule: Q01DX009 (ip), vehicle: saline with Tween-80 92 % of control

CN1C(=O)C=C(N)C1=O
inactive: [7] 96 % of control | [8] 94 % of control | [9] 91 % of control

O=C(OCc1ccccc1CN1CCOCC1)c1ccccc1
inactive: [14] 98 % of control | [12] 105 % of control | [13] 96 % of control

Cc1cccc(C)c1NC(=O)NCc1ccco1
inactive: dose: 25.0 mg/kg/injection, schedule: Q04DX002 (ip), vehicle: Klucel (hydroxypropylcellulose) (HPC) 99 % of control | dose: 50.0 mg/kg/injection, schedule: Q04DX002 (ip), vehicle: Klucel (hydroxypropylcellulose) (HPC) 118 % of control | dose: 100.0 mg/kg/injection, schedule: Q01DX009 (ip), vehicle: Klucel (hydroxypropylcellulose) (HPC) 103 % of control | [14] 100 % of control and 103 % of control | [15] 103 % of control | dose: 200.0 mg/kg/injection, schedule: Q01DX009 (ip), vehicle: Klucel (hydroxypropylcellulose) (HPC) 107 % of control | [16] 100 % of control | dose: 400.0 mg/kg/injection, schedule: Q01DX009 (ip), vehicle: Klucel (hydroxypropylcellulose) (HPC) 102 % of control | [17] 93 % of control

O=C(O)c1c(-c2ccccc2)[nH]c2ccccc2c1=O
inactive: [15] 88 % of control | [16] 87 % of control | [17] 90 % of control

COc1cc(C(=O)NN(C)C)cc(OC)c1OC
inactive: [1] 97 % of control | [2] 101 % of control | [3] 101 % of control

CC(=O)OC1CCC(NC(N)=O)CC1 (centres undefined)
inactive: dose: 176.0 mg/kg/injection, schedule: Q01DX001 (ip), vehicle: other 102 % of control | dose: 264.0 mg/kg/injection, schedule: Q01DX001 (ip), vehicle: other 120 % of control | dose: 400.0 mg/kg/injection, schedule: Q01DX001 (ip), vehicle: other 97 % of control | dose: 600.0 mg/kg/injection, schedule: Q01DX001 (ip), vehicle: other 105 % of control

OC1C=Cc2ccccc21 (centres undefined)
inactive: dose: 100.0 mg/kg/injection, schedule: Q04DX002 (ip), vehicle: other 97 % of control | dose: 200.0 mg/kg/injection, schedule: Q04DX002 (ip), vehicle: other 97 % of control

CCN(CC)S(=O)(=O)/C=C\c1ccccc1
inactive: dose: 50.0 mg/kg/injection, schedule: Q04DX003 (ip), vehicle: Klucel (hydroxypropylcellulose) (HPC) 96 % of control | [10] 98 % of control | [15] 107 % of control | [11] 107 % of control | [16] 102 % of control | dose: 400.0 mg/kg/injection, schedule: Q01DX001 (ip), vehicle: Klucel (hydroxypropylcellulose) (HPC) 102 % of control | [17] 104 % of control

COC(=O)c1[nH]cnc1/N=N/N(C)C1CCCCC1
inactive: [1] 91 % of control | [2] 102 % of control

CCCc1ccc(OC/C=C(\C)CCC2OC2(C)CC)cc1 (centres undefined)
inactive: [4] 92 % of control | [5] 99 % of control | [6] 92 % of control

CC(=O)OCc1ccc(Cl)c(Cl)c1
inactive: dose: 50.0 mg/kg/injection, schedule: Q01DX009 (ip), vehicle: saline sonified 100 % of control | dose: 100.0 mg/kg/injection, schedule: Q01DX009 (ip), vehicle: saline sonified 100 % of control | dose: 100.0 mg/kg/injection, schedule: Q04DX003 (ip), vehicle: saline sonified 101 % of control | dose: 200.0 mg/kg/injection, schedule: Q01DX009 (ip), vehicle: saline sonified 97 % of control | dose: 200.0 mg/kg/injection, schedule: Q04DX003 (ip), vehicle: saline sonified 107 % of control | dose: 400.0 mg/kg/injection, schedule: Q04DX003 (ip), vehicle: saline sonified 106 % of control

O=C(Nc1cccc(F)c1)OCCOc1ccccc1
inactive: dose: 100.0 mg/kg/injection, schedule: Q01DX009 (ip), vehicle: gum acacia 93 % of control | dose: 200.0 mg/kg/injection, schedule: Q01DX009 (ip), vehicle: gum acacia 102 % of control | dose: 400.0 mg/kg/injection, schedule: Q01DX009 (ip), vehicle: gum acacia 96 % of control
